{"source": "paper PMC4297936", "about": "(Redox Biology, 2014)", "key": {"[1]": {"target": "T1, mitochondrial complex I (NADH: ubiquinone oxidoreductase) (Mus musculus, UniProt P03888+Q91WD5+Q9DC70)", "assay": "NADH: ubiquinone oxidoreductase activity", "assay_type": "biochemical"}, "[2]": {"target": "mitochondrial complex II (succinate: ubiquinone oxidoreductase) (Mus musculus, UniProt Q8K2B3+Q9CQA3+Q9CXV1+Q9CZB0)", "sequence (Q8K2B3 43-664)": "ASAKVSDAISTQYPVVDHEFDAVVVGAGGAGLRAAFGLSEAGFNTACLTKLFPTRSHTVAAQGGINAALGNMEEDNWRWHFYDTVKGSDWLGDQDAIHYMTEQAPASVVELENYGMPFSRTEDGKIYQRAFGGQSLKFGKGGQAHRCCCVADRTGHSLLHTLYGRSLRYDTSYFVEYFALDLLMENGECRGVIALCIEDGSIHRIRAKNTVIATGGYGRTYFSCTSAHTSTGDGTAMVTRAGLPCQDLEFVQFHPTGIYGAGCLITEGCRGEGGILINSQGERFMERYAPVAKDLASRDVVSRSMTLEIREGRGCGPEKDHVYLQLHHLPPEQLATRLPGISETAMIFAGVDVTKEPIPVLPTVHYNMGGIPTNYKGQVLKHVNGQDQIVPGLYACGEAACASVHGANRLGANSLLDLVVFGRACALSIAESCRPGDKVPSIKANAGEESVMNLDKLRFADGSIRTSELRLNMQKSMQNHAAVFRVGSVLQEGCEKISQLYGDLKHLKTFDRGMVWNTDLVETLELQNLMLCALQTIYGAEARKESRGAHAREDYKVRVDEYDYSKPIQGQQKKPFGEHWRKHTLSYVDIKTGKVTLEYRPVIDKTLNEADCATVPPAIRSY", "sequence (Q9CQA3 31-282)": "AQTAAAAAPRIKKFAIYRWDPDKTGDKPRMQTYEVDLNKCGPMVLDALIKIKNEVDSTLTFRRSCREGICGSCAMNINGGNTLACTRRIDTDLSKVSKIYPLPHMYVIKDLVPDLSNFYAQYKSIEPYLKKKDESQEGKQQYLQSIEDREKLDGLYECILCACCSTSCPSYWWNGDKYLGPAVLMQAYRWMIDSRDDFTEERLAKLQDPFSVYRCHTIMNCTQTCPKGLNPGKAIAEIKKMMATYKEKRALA", "sequence (Q9CZB0 30-169)": "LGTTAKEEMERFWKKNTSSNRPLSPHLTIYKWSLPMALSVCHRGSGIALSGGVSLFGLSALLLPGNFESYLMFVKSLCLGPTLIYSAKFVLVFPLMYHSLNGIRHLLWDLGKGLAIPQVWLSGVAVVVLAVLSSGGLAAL", "sequence (Q9CXV1 57-159)": "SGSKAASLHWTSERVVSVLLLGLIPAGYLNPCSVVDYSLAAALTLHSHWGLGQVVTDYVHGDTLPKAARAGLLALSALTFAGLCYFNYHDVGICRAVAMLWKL", "assay": "succinate: ubiquinone oxidoreductase activity, DCPIP reduction", "assay_type": "biochemical"}, "[3]": {"target": "T1, mitochondrial complex I (NADH: ubiquinone oxidoreductase)", "assay": "NADH: ubiquinone oxidoreductase activity", "assay_type": "cell-based", "details": "read-out: % inhibition at 20 μM"}}}
{"smiles": "O=C1Nc2ccc(Cl)cc2[C@@](C#CC2CC2)(C(F)(F)F)O1", "note": "[EFV, efavirenz]", "values": [{"measurement": "IC50", "setting": "[1]", "result": "~30", "unit": "µM"}]}
{"smiles": "NN", "note": "[HzN, hydrazine]", "values": [{"measurement": "IC50", "setting": "[2]", "result": "~30", "unit": "µM"}]}
{"smiles": "C=C(C)[C@H]1Cc2c(ccc3c2O[C@@H]2COc4cc(OC)c(OC)cc4[C@@H]2C3=O)O1", "note": "[ROT, rotenone]", "values": [{"measurement": "inhibition at 20 µM", "setting": "[3]", "result": "~50", "unit": "%"}]}
